Data: PMC3372685 (Biochemical Pharmacology, 2012)
Read-outs that look alike come from different tables or passages of the source.

Legend:
[1] = test system: zebrafish heteromeric nAChR subtypes (α3β4, α1β1bεδ, α2β2, α4β2); assay type: cell-based, zebrafish (Danio rerio); conditions: co-application, 30 µM 4OH-GTS-21 and tropane, 300 µM choline
zebrafish α7 nAChR [2] = biological target: T1, zebrafish α7 nAChR (Danio rerio, UniProt Q800C7); assay: Agonist-evoked responses, two-electrode voltage clamp in Xenopus oocytes; assay type: cell-based; conditions: for Activation of fish α7 nAChR: prototypical α7-selective agonists; for Emax: read-out: Imax; for Agonist type compared to ACh: α7
T1 sequence (Q800C7 23-509): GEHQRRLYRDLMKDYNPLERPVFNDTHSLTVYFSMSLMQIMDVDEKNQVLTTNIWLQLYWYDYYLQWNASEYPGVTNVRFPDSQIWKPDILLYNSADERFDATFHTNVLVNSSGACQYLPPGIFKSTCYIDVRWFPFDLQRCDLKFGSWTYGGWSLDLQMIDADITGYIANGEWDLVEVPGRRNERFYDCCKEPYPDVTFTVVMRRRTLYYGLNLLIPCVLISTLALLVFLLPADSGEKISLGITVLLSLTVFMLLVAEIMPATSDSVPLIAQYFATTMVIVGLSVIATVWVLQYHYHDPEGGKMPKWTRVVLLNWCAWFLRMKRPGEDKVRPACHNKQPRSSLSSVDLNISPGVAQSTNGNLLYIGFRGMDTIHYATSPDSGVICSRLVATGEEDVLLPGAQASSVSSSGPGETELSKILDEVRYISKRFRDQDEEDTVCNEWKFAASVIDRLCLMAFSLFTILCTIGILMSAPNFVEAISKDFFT

zebrafish α4β2 nAChR [3] = biological target: T2, zebrafish α4β2 nAChR (Danio rerio, UniProt E7F4S7+Q0PJT8); assay: as above; assay type: cell-based; conditions: for Activation of α4β2 receptors by probe concentration: 30 µM 4OH-GTS-21 and tropane, 300 µM choline; for Emax: read-out: Imax
T2 sequence (Q0PJT8 19-627): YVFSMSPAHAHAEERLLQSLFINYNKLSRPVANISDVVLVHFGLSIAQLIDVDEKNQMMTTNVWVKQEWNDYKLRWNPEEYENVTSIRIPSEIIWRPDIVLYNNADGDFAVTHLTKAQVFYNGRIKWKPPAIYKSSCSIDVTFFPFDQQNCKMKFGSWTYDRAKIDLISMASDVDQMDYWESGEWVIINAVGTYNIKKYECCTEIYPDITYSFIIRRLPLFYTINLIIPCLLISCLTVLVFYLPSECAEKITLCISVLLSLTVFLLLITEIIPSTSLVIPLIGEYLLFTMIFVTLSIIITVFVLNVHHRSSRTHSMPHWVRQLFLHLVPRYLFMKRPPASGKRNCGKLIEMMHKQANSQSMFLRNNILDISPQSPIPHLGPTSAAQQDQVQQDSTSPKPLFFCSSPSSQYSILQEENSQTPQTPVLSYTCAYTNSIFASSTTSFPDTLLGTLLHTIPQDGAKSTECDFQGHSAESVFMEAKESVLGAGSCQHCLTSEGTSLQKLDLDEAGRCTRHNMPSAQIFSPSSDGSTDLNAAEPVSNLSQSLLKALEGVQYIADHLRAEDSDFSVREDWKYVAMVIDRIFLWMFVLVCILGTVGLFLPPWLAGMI
T2 sequence (E7F4S7 20-543): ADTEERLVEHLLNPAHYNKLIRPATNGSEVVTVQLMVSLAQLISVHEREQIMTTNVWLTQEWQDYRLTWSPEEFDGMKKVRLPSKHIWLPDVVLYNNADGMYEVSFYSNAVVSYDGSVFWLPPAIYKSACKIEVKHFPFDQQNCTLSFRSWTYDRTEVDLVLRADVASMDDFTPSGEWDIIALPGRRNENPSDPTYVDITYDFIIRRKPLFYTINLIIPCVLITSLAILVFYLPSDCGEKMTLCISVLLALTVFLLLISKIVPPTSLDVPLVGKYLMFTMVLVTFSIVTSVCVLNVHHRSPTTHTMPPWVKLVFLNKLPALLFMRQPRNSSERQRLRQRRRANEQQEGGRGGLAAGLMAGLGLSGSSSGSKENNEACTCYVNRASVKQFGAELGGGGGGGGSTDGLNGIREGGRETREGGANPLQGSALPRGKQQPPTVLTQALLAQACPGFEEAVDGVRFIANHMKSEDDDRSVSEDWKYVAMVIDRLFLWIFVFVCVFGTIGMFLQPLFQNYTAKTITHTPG

[4] = biological target: T3, zebrafish α3β4F106Y nAChR (Danio rerio, UniProt A0A0R4ISQ3+A0A8M1QHJ5, F140Y); assay: cell-based
T3 sequence (A0A8M1QHJ5 61-543, stated change not applied, other chains not shown): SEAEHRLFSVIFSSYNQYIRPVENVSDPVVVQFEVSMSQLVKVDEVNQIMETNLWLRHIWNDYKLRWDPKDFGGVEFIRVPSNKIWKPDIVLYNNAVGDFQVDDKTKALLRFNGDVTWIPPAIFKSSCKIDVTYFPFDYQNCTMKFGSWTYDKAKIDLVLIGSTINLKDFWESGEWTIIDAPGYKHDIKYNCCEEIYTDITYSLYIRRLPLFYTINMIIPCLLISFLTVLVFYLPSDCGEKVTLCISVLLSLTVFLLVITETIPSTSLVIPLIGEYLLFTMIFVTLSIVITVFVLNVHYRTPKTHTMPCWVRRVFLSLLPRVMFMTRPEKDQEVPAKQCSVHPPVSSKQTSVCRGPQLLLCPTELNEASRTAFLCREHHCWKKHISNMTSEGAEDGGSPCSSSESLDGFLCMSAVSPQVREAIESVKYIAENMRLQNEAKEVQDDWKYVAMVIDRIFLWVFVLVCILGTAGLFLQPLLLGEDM

zebrafish α3β4 nAChR [5] = biological target: T4, zebrafish α3β4 nAChR (Danio rerio, UniProt A0A0R4ISQ3+A0A8M1QHJ5); assay: Agonist-evoked responses, two-electrode voltage clamp in Xenopus oocytes; assay type: cell-based; conditions: for Emax: read-out: Imax; for Agonist type compared to ACh: α3β4
zebrafish [6] = conditions: cited from earlier work
zebrafish [7] = conditions: previous work; cited from earlier work
human α7 nAChR = conditions: read-out: EC50 for human α7; used as probe concentration; cited from earlier work
[8] = biological target: T5, zebrafish muscle α1β1bεδ nAChR (Danio rerio, UniProt A2BG85+G1FMP8+Q75XT1+Q98880); conditions: for EC50: peak current amplitude
T5 sequence (Q98880 21-456): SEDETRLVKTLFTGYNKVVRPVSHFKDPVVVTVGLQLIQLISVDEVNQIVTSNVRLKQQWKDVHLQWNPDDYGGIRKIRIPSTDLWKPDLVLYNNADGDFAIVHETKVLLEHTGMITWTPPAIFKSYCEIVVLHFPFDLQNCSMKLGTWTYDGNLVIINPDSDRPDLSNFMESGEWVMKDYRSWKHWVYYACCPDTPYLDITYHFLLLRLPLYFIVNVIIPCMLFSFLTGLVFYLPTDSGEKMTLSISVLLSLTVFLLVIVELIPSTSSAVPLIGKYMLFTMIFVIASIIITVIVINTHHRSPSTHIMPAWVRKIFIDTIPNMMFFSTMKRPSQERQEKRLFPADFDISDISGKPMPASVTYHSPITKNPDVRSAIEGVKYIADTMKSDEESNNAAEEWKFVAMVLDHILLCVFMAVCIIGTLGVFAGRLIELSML
T5 sequence (G1FMP8 23-492): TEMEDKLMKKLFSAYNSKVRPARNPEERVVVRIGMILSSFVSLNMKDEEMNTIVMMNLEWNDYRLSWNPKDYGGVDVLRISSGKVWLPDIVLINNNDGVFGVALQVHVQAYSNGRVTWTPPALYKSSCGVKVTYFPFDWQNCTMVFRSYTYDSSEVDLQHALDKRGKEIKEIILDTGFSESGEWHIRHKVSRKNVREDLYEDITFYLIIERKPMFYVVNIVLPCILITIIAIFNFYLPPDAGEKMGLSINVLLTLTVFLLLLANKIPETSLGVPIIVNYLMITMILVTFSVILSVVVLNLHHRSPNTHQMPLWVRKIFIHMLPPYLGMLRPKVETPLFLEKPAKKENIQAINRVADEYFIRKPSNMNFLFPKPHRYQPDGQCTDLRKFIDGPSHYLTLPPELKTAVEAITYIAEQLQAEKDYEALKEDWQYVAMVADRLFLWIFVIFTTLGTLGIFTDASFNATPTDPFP
T5 sequence (A2BG85 27-517): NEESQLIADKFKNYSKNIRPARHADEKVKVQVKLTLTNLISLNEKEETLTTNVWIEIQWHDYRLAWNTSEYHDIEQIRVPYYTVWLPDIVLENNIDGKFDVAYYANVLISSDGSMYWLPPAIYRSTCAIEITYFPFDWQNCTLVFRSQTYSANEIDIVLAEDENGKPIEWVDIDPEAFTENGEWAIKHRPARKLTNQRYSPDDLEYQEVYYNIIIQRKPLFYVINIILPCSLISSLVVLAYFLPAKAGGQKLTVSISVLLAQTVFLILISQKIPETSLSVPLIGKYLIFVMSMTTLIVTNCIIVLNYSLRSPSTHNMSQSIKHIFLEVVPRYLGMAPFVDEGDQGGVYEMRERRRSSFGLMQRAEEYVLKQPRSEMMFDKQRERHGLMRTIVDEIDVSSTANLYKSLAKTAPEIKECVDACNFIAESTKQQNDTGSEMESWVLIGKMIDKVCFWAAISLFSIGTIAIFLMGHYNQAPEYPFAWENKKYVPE
T5 sequence (Q75XT1 22-518): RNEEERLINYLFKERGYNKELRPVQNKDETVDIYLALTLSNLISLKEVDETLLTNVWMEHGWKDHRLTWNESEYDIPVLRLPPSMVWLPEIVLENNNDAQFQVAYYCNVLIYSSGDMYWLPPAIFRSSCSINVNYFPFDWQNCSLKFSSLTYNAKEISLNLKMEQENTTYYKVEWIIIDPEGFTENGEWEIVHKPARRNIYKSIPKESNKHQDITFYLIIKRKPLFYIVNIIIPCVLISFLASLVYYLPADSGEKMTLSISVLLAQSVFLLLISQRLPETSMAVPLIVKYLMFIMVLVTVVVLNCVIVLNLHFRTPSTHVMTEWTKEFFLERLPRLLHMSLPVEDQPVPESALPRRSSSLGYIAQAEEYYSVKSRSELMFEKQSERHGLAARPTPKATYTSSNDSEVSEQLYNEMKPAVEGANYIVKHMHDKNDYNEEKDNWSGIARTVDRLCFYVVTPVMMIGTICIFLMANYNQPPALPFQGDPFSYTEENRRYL

[9] = biological target: T3, zebrafish α3β4F106Y nAChR
zebrafish α2β2 nAChR [10] = biological target: T6, zebrafish α2β2 nAChR (Danio rerio, UniProt A0ACM8Q9T8+E7F4S7); assay: cell-based
T6 sequence (A0ACM8Q9T8 29-520): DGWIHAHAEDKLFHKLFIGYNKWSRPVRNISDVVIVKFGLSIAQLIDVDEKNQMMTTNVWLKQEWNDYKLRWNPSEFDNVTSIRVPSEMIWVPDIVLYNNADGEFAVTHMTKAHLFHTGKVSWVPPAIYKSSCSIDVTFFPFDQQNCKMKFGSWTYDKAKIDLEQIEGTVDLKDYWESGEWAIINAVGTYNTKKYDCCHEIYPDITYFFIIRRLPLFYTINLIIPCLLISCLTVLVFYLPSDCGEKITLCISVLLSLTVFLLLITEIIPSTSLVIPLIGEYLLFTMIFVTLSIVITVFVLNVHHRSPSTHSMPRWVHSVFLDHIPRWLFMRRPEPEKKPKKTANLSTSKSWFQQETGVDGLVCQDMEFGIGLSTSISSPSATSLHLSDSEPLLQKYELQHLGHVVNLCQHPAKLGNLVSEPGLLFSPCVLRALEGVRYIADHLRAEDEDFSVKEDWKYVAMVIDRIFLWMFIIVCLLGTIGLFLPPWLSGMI
T6 sequence (E7F4S7 20-543): as the sequence (E7F4S7 20-543) above

[11] = biological target: T5, zebrafish muscle α1β1bεδ nAChR; assay: cell-based; conditions: read-out: Imax
rat α3β4 nAChR = conditions: rat α3β4, co-application of 100 µM ACh with 3 µM mecamylamine; cited from earlier work
[12] = biological target: T5, zebrafish muscle α1β1bεδ nAChR; conditions: for IC50: α1β1bεδ, co-application with 30 µM ACh
zebrafish α4β2 nAChR [13] = biological target: T2, zebrafish α4β2 nAChR; conditions: α4β2, ACh control after normal washout
[14] = test system: human and zebrafish α3β4 and α4β2 nAChR; assay type: cell-based; conditions: α3β4 and α4β2, repeated application protocol, low concentration of mecamylamine
zebrafish α7 nAChR [15] = biological target: T1, zebrafish α7 nAChR; conditions: α7, data not shown
zebrafish α2β2 nAChR [16] = biological target: T6, zebrafish α2β2 nAChR; assay: cell-based; remark: listed apart in the source
zebrafish [17] = conditions: cited from earlier work; remark: listed apart in the source
zebrafish α3β4 nAChR [18] = biological target: T4, zebrafish α3β4 nAChR; assay: Inhibition of ACh-evoked responses by co-applied mecamylamine in Xenopus oocytes; assay type: cell-based
zebrafish α7 nAChR [19] = biological target: T1, zebrafish α7 nAChR; assay: cell-based
zebrafish α2β2 nAChR [20] = biological target: T6, zebrafish α2β2 nAChR; conditions: α2β2, ACh control after normal washout
zebrafish [21] = conditions: given 5 minutes before the task (not if 40 minutes prior); cited from earlier work
zebrafish [22] = conditions: cited from earlier work; remark: listed apart in the source

Structure (SMILES): COc1cc(O)ccc1/C=C1\CCCN=C1c1cccnc1 [4OH-GTS-21, 3-(4-hydroxy, 2-methoxybenzylidene)anabaseine]
- Inhibition of ACh-evoked responses of heteromeric nAChR subtypes [1]: inhibited all of the heteromeric receptors
- Activation of fish α7 nAChR (zebrafish α7 nAChR [2]): activate
- Activation of α4β2 receptors by probe concentration (zebrafish α4β2 nAChR [3]): evoked significant responses

Structure (SMILES): CC(=O)OCC[N+](C)(C)C [ACh, acetylcholine]
- EC50 [4]: 134 ± 5 µM
- EC50 (zebrafish α3β4 nAChR [5]): 73 ± 3 µM
- EC50 (zebrafish α7 nAChR [2]): 39 ± 3 µM

Structure (SMILES): CO[C@H]1CC=C2CCN3CCC4=C(CC(=O)OC4)[C@]23C1 [DHβE, dihydro-beta-erythroidine]
- Effect on anxiolytic effects of nicotine (zebrafish [6]): blocked
- Effect on nicotine-induced increase in swimming activity (zebrafish [7]): blocked

Structure (SMILES): CCN1C[C@]2(COC(=O)c3ccccc3N3C(=O)C[C@H](C)C3=O)CC[C@H](OC)[C@@]34[C@@H]5C[C@H]6[C@H](OC)[C@@H]5[C@](O)(C[C@@H]6OC)[C@@](O)([C@@H](OC)[C@H]23)[C@@H]14 [MLA, methyllycaconitine]
- Effect on anxiolytic effects of nicotine (zebrafish [6]): blocked
- Effect on nicotine-induced increase in swimming activity (zebrafish [7]): blocked

Structure (SMILES): C[N+](C)(C)CCO [choline]
- EC50 (human α7 nAChR): 300 µM
- Inhibition of ACh-evoked responses of heteromeric nAChR subtypes [1]: relatively ineffective
- Activation of fish α7 nAChR (zebrafish α7 nAChR [2]): activate
- Activation of α4β2 receptors by probe concentration (zebrafish α4β2 nAChR [3]): evoked significant responses

Structure (SMILES): O=c1cccc2n1C[C@@H]1CNC[C@H]2C1 [cytisine]
- EC50 [8]: 460 ± 20 µM
- Relative amplitude of responses versus wild-type fish α3β4 ([9]; 100 µM cytisine, relative to 100 µM ACh control responses): significantly larger
- Effect of the F106Y mutation on efficacy ([9]; expressed relative to respective ACh maximums): no significant effect
- EC50 (zebrafish α2β2 nAChR [10]): 4.1 ± 0.3 µM
- Emax (zebrafish α2β2 nAChR [10]; read-out: Imax): 9 ± 1%
- EC50 (zebrafish α3β4 nAChR [5]): 11 ± 1 µM
- Emax (zebrafish α3β4 nAChR [5]): 12 ± 0.2%
- Agonist type compared to ACh (zebrafish α3β4 nAChR [5]): relatively weak partial agonist
- Emax [11]: 13 ± 0.3%
- EC50 (zebrafish α7 nAChR [2]): 15 ± 3 µM
- Emax (zebrafish α7 nAChR [2]): 116 ± 6%
- Agonist type compared to ACh (zebrafish α7 nAChR [2]): full agonist
- Emax (zebrafish α4β2 nAChR [3]): 26 ± 1%

Structure (SMILES): CNC1(C)C2CCC(C2)C1(C)C (stereo not shown) [mecamylamine]
- Effect on anxiolytic effect of nicotine (zebrafish [6]; 200 mg/l mecamylamine): blocked
- Residual inhibition of ACh control responses following washout (rat α3β4 nAChR): 60%
- Reversibility of inhibition ([12]; muscle-type receptors): readily reversible
- IC50 ([12]; read-out: Net charge IC50): 0.6 ± 0.07 µM
- IC50 ([12]; read-out: Peak current IC50): 1.8 ± 0.21 µM
- Mecamylamine concentration giving significant (>25%) residual inhibition (zebrafish α4β2 nAChR [13]): ≥ 30 nM
- Inhibition of fish versus human receptor subtypes [14]: significantly greater (p < 0.01)
- Reversibility of inhibition (zebrafish α7 nAChR [15]): readily reversible
- IC50 (zebrafish α2β2 nAChR [16]; Net charge IC50, α2β2, co-application with 30 µM ACh): 3.5 ± 1.3 µM
- IC50 (zebrafish α2β2 nAChR [16]; Peak current IC50, α2β2, co-application with 30 µM ACh): 3 ± 0.7 µM
- Effect on nicotine-induced increase of dihydroxyphenylacetic acid (zebrafish [17]): blocked
- IC50 (zebrafish α3β4 nAChR [18]; Net charge IC50, α3β4, co-application with 100 µM ACh): 0.05 ± 0.01 µM
- IC50 (zebrafish α3β4 nAChR [18]; Peak current IC50, α3β4, co-application with 100 µM ACh): 0.6 ± 0.1 µM
- Reversibility of inhibition (zebrafish α3β4 nAChR [18]; α3β4, 3 µM mecamylamine): rapidly reversible
- IC50 (zebrafish α7 nAChR [19]; Net charge IC50, α7, co-application with 60 µM ACh): 13 ± 3 µM
- IC50 (zebrafish α7 nAChR [19]; Peak current IC50, α7, co-application with 60 µM ACh): 28 ± 11 µM
- Mecamylamine concentration giving significant (>25%) residual inhibition (zebrafish α2β2 nAChR [20]): ≥ 300 nM
- Effect on nicotine-induced improvement in spatial learning task (zebrafish [21]): blocked this nicotine-induced improvement

Structure (SMILES): CN1CCC[C@H]1c1cccnc1 [nicotine]
- Effect in fish model of anxiety (zebrafish [6]; 100 mg/l): anxiolytic
- Agonist type compared to ACh [8]: partial agonist
- EC50 [8]: 140 ± 50 µM
- Performance in delayed spatial alternation task (zebrafish [22]; high doses): impaired
- Performance in delayed spatial alternation task (zebrafish [22]; low doses (100 mg/l in the water)): improved performance
- Dihydroxyphenylacetic acid levels (zebrafish [17]): increases dihydroxyphenylacetic acid levels
- Swimming activity (zebrafish [7]): increases swimming activity
- EC50 (zebrafish α3β4 nAChR [5]): 13 ± 6 µM
- Emax (zebrafish α3β4 nAChR [5]): 17 ± 2%
- Agonist type compared to ACh (zebrafish α3β4 nAChR [5]): partial agonist
- Emax [11]: 13 ± 3%
- EC50 (zebrafish α7 nAChR [2]): 27 ± 6 µM
- Emax (zebrafish α7 nAChR [2]): 75 ± 4%
- Agonist type compared to ACh (zebrafish α7 nAChR [2]): full agonist
- Emax (zebrafish α4β2 nAChR [3]): 70 ± 10%
- Agonist type compared to ACh (zebrafish α4β2 nAChR [3]; α4β2): partial agonist

Structure (SMILES): CN1[C@@H]2CCC[C@H]1CC2 [tropane]
- Inhibition of ACh-evoked responses of heteromeric nAChR subtypes [1]: effective at inhibiting the neuronal heteromeric receptor subtypes
- Activation of fish α7 nAChR (zebrafish α7 nAChR [2]): activate
- Activation of α4β2 receptors by probe concentration (zebrafish α4β2 nAChR [3]): evoked significant responses
